Results from patent publication US20110218217A1, “PIPERIDYLPROPIONAMIDE DERIVATIVES USEFUL FOR THE TREATMENT OF CNS DISORDERS INCLUDING DEPRESSION AND PANIC DISORDER” (NEUROSEARCH A/S, priority 2008, published 2011).
Read-outs that look alike come from different tables or passages of the source.

Tests used:
Type in all cases: biochemical
[1] = biological target: T1, reuptake of serotonine (5-HT) in synaptosomes (Rattus norvegicus, UniProt P31652); test: Inhibition of 5-HT reuptake in synaptosomes; conditions: 3H-5-HT, read-out: 5-HT-uptake IC50
T1 construct: in synaptosomes as described in WO 97/16451 (NeuroSearch A/S); from tissue
Description: (§1) Compounds were tested for their ability to inhibit the reuptake of the monoamine neurotransmitters dopamine (DA) noradrenaline (NA) and serotonine (5-HT) in synaptosomes as described in WO 97/16451 (NeuroSearch A/S).
(§2) The test values are given as IC50 (the concentration (μM) of the test substance which inhibits the specific binding of ^3H-DA, ^3H-NA, or ^3H-5-HT by 50%).

[2] = biological target: T2, reuptake of dopamine (DA) in synaptosomes (Rattus norvegicus, UniProt P23977); test: Inhibition of DA reuptake in synaptosomes
T2 construct: in synaptosomes as described in WO 97/16451 (NeuroSearch A/S); from tissue
Description: as §1, §2

[3] = biological target: T3, reuptake of noradrenaline (NA) in synaptosomes (Rattus norvegicus, UniProt Q63380); test: Inhibition of NA reuptake in synaptosomes
T3 construct: in synaptosomes as described in WO 97/16451 (NeuroSearch A/S); from tissue
Description: as §1, §2

[4] = 3H-DA, synaptosomes, read-out: DA-uptake IC50
[5] = 3H-NA, synaptosomes, read-out: NA-uptake IC50

T2 sequence (P23977 whole entry): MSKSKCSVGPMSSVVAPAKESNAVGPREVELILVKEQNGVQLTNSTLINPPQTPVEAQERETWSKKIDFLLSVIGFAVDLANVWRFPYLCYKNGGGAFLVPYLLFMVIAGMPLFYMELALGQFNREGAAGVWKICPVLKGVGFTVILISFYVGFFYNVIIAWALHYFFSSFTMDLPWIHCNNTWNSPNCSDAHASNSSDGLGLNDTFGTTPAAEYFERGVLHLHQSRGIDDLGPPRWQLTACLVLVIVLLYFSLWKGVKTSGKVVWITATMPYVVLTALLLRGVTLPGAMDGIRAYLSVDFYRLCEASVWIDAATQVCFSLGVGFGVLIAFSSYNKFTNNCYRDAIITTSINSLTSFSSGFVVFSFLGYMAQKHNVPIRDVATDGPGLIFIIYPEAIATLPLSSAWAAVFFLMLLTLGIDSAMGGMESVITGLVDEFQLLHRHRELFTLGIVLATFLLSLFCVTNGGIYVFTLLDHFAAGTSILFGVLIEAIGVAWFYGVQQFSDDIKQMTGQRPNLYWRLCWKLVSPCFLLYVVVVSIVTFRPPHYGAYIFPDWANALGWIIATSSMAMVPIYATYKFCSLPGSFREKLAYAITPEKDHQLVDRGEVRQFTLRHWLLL
T3 sequence (Q63380 1-617): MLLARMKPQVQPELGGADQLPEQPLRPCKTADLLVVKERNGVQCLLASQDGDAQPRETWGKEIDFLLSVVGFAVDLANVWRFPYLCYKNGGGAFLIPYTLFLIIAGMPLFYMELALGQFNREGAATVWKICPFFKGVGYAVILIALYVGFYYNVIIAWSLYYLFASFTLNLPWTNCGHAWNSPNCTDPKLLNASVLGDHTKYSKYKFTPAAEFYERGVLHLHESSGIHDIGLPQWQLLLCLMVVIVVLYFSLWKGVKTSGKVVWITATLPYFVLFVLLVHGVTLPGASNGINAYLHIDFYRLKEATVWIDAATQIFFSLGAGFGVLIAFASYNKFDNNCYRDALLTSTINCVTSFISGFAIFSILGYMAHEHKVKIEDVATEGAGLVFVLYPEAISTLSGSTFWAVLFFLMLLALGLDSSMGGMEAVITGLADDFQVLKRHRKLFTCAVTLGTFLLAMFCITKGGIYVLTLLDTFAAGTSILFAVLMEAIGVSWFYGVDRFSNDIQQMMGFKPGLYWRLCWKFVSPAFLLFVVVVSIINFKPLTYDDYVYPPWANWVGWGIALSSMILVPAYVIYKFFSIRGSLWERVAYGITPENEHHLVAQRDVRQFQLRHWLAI
T1 sequence (P31652 whole entry): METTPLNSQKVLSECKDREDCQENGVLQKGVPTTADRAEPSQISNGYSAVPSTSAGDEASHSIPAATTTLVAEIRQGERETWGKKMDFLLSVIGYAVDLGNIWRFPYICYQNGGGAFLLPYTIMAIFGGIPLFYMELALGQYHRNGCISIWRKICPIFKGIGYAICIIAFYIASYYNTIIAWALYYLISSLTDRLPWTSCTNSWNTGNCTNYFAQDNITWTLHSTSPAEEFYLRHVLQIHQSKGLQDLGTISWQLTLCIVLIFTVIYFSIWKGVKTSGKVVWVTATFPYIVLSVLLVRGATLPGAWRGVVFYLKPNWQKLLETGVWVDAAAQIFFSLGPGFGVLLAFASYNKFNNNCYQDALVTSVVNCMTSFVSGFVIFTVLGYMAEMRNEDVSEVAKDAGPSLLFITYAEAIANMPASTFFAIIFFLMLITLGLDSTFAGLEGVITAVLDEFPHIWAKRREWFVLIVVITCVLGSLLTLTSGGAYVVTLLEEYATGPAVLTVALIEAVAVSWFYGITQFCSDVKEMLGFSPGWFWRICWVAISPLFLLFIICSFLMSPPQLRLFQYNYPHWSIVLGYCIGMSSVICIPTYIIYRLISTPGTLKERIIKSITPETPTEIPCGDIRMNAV

SMILES | IC50 [1] [nM] | IC50 [2, 4] [nM] | IC50 [3, 5] [nM] | IC50 [2] [nM] | IC50 [3] [nM]
CCN(C(=O)CCC1CCNCC1)c1ccc(Cl)c(Cl)c1 [N-(3,4-Dichloro-phenyl)-N-ethyl-3-piperidin-4-yl-propionamide] | 2100 | 11 | 11 |  | 
CN(C(=O)CCC1CCNCC1)c1ccc(Cl)c(Cl)c1 [N-(3,4-Dichloro-phenyl)-N-methyl-3-piperidin-4-yl-propionamide] | > 1000 | 220 | 770 |  | 
CCCN(C(=O)CCC1CCNCC1)c1ccc(Cl)c(Cl)c1 [N-(3,4-Dichloro-phenyl)-3-piperidin-4-yl-N-propyl-propionamide] | 1400 | 9.8 | 1.9 |  | 
CCN(C(=O)CCC1CCN(C)CC1)c1ccc(Cl)c(Cl)c1 [N-(3,4-Dichloro-phenyl)-N-ethyl-3-(1-methyl-piperidin-4-yl)-propionamide] | > 1000 | 6.3 | 6.5 |  | 
CCN(C(=O)CCC1CCN(C)CC1)c1ccc(Br)c(Cl)c1 [N-(4-Bromo-3-chloro-phenyl)-N-ethyl-3-(1-methyl-piperidin-4-yl)-propionamide] | > 1000 | 6.8 | 1.3 |  | 
CCN(C(=O)CCC1CCNCC1)c1ccc(Br)c(Cl)c1 [N-(4-Bromo-3-chloro-phenyl)-N-ethyl-3-piperidin-4-yl-propionamide] | > 1000 | 3.1 | 2.6 |  | 
CN1CCC(CCC(=O)N(C)c2ccc(Cl)c(Cl)c2)CC1 [N-(3,4-Dichloro-phenyl)-N-methyl-3-(1-methyl-piperidin-4-yl)-propionamide] | > 1000 | 330 | 87 |  | 
CCCN(C(=O)CCC1CCN(C)CC1)c1ccc(Cl)c(Cl)c1 [N-(3,4-Dichloro-phenyl)-3-(1-methyl-piperidin-4-yl)-N-propyl-propionamide] | 820 |  |  | 10 | 1
